According to patent publication US20220054447A1, “CANNABIS COMPOSITIONS AND METHODS” (priority 2018, published 2022):
Marks after values point to notes of the source that are not given here.

Tests used:
[1] = 9-month stability of dried cannabis drug stored in a vault (not under nitrogen); assay type: physicochemical; set-up: Analyte content, Nov. 17, 2016: unit not given beside the values; conditions: for % Change from Day 0: 9-month storage, <0.05 assumed to be 0.05 for calculation; for Analyte content, Aug. 10, 2017 / Analyte content, Nov. 17, 2016: dried cannabis drug stored in a vault, not under nitrogen; for Analyte content, Aug. 10, 2017: 9 months; for Analyte content, Nov. 17, 2016: Day 0
Excerpt: A schematic depicting the production of exemplary cannabinoic acids and subsequent transformation to the related neutral form by conditions such as oxidation, heat and time is shown in FIG. 3.

[2] = cited from earlier work; for log P (octanol/water partition coefficient): United Nations Office on Drugs and Crime, 2009
[3] = Dose uniformity of pellets; assay type: physicochemical
Excerpt: The dose uniformity studies show improvement subsequent to optimization of the blending process. […] After optimizing the process, the dose uniformity for clinical batches was 5.59% and 5.13% for THC and THCA, respectively.

[4] = Phase 1 clinical batch, before optimization of blending
[5] = clinical batches after optimizing the process

CCCCCc1cc(O)c(C/C=C(\C)CCC=C(C)C)c(O)c1 [CBG, cannabigerol]
% Change from Day 0 [1]: 140%
Analyte content, Aug. 10, 2017 [1]: 0.12
Analyte content, Nov. 17, 2016 [1]: <0.05*

C=C(C)[C@@H]1CCC(C)=C[C@H]1c1c(O)cc(CCCCC)cc1O [CBD, cannabidiol, reference compound]
% Change from Day 0 [1]: 1260%
Analyte content, Aug. 10, 2017 [1]: 0.68
Analyte content, Nov. 17, 2016 [1]: <0.05*
log P (octanol/water partition coefficient) [2]: 5.79
Solubility in ethanol [2]: soluble in ethanol
Solubility in water [2]: not soluble in water

CCCCCc1cc2c(c(O)c1C(=O)O)[C@@H]1C=C(C)CC[C@H]1C(C)(C)O2 [THCA, tetrahydrocannabinolic acid]
Analyte content, Aug. 10, 2017 [1]: 6.02
Analyte content, Nov. 17, 2016 [1]: 9.68
Dose uniformity, % variability [3, 4]: 15.07%
Dose uniformity, % variability [3, 5]: 5.13%

C=C(C)[C@@H]1CCC(C)=C[C@H]1c1c(O)cc(CCCCC)c(C(=O)O)c1O [CBDA, cannabidiolic acid]
% Change from Day 0 [1]: 33.9%
Analyte content, Aug. 10, 2017 [1]: 2.03
Analyte content, Nov. 17, 2016 [1]: 3.07

CCCCCc1cc(O)c(C/C=C(\C)CCC=C(C)C)c(O)c1C(=O)O [CBGA, cannabigerolic acid]
Analyte content, Aug. 10, 2017 [1]: 0.26
Analyte content, Nov. 17, 2016 [1]: 0.37

CCCCCc1cc(O)c2c(c1)OC(C)(C)[C@@H]1CCC(C)=C[C@@H]21 [THC, tetrahydrocannabinol, reference compound]
% Change from Day 0 [1]: 733%
Analyte content, Aug. 10, 2017 [1]: 1.75
Analyte content, Nov. 17, 2016 [1]: 0.21
Dose uniformity, % variability [3, 4]: 12.82%
Dose uniformity, % variability [3, 5]: 5.59%
log P (octanol/water partition coefficient) [2]: 6.99
Stability ([2]; pure THC, Mechoulam 1970, NIH 1996): unstable in air, light, and at high temperatures
